Experimental findings from US20250186452A1, “NOVEL USE OF QUINOLINE COMPOUND” (TARAPEUTICS SCIENCE INC., priority 2022, published 2025) are described below.

Series [1] has as its target T1, TEL-CSF1R-BaF3 (Homo sapiens, UniProt P07333).
T1 construct: expressed in transfected cells; host or cells: mouse BaF3 cells (ATCC), retroviral transduction with MSCV-Puro vector, IL-3 withdrawn; the other entry of the earlier key: ETV6 (P41212, Transcription factor ETV6)
T1 sequence (P07333 582-910 limits assumed): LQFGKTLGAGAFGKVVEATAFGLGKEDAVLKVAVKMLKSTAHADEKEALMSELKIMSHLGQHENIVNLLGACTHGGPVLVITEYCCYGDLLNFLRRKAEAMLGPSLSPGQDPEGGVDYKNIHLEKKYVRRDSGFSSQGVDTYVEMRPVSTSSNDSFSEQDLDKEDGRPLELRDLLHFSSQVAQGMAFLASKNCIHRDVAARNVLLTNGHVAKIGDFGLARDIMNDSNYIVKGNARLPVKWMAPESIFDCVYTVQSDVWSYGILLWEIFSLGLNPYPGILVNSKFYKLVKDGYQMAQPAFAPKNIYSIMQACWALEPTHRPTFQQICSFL
The series can be described thus: Proliferation of TEL-CSF1R-BaF3 cells (CCK-8, 72 hours). Particulars: 72 hours incubation, CCK-8. Format: cell-based. On the procedure:
(§1) The incubated cells were detected by CCK-8 (purchased from MedChem Express, China) cell viability detection kit (CCK-8 can be reduced by dehydrogenases in living cells to a highly water-soluble yellow formazan product, and the amount of the generated formazan product is proportional to the number of living cells). The number of living cells was quantified by a microplate reader, and the GI50 for each compound was calculated (the results are shown in Table 2).
The construction method of the TEL-CSF1R-BaF3 cell line (a cell line stably expressing CSF1R kinase) was as follows: the sequence of human CSF1R kinase region was amplified by PCR and inserted into the MSCV-Puro vector (Clontech) with an N-terminal TEL fragment, and stably transferred into mouse BaF3 cells (purchased from ATCC, USA) by a retroviral method, and IL-3 growth factor was removed, finally a cell line dependent on CSF1R transferred protein was obtained.

The subject of series [2] is M-NSF-60. Briefly: Proliferation of M-NSF-60 cells with M-CSF (CCK-8, 72 hours). Format: cell-based, mouse. Particulars: Mus musculus; M-CSF 50 ng/ml in medium, 72 hours incubation, CCK-8; read-out: M-NSF-60 (GI50/μM). How it is done:
as §1

The subject of series [3] is RAW264.7 cells. Briefly: Cell transformation experiment: IL-10 secretion of M2-induced RAW264.7 cells (ELISA). Format: cell-based, mouse. How it is done: RAW264.7 cells (purchased from ATCC, USA) were sucked up and down with a pipette, and the cells were added to a centrifuge tube, placed in a centrifuge, and centrifuged at 800 rpm for 4 minutes.
In general terms: ELISA stands for enzyme-linked immunosorbent assay.

The subject of series [4] is MC38 cells. The series can be described thus: In vivo efficacy in MC38 cell tumor transplantation mouse model. How it is done:
In this example, the experimental effects of Compound 2 and the control compound PLX3397 (purchased from MedChem Express, China) in MC38 and 4T1 mouse models were tested respectively.
The experimental procedure was as follows: • (1) C57BL/6J male mice for use as MC38 transplanted tumor model and Balb/c male mice for use as 4T1 transplanted tumor model, which were 6 weeks old, were purchased from GemPharmatech Co., Ltd, Jiangsu. All the above mice were raised in an SPF laboratory, and the drinking water and padding had been sterilized by high pressure sterilization. All operations related to mice were performed under sterile conditions. • (2) On day 0, approximately 1×10^6 MC38 cells (purchased from ATCC) were injected subcutaneously into the left back of each of the C57BL/6J mice, and approximately 1×10^6 4T1 cells (purchased from ATCC) were injected subcutaneously into the left back of each of the Balb/c mice. • (3) For the MC38 mouse model, starting from the 6th day, the corresponding mice were orally administered with methylcellulose (HKI) (purchased from China National Pharmaceutical Group Corporation) solvent once a day (5 mice); Compound 2 at a dose of 50 mg/kg mouse weight once a day (5 mice); PLX3397 at a dose of 50 mg/kg mouse weight once a day (5 mice). For the 4T1 mouse model, starting from the 6th day, the corresponding mice were orally administered with 10% HS-15 (purchased from BASF, Germany) solvent (5 mice); Compound 2 at a dose of 50 mg/kg mouse weight once a day (5 mice); PLX3397 at a dose of 50 mg/kg mouse weight once a day (5 mice). • (4) Starting from the 6th day, the length/width of the subcutaneous tumor was measured with a vernier caliper every day, and the weight of the mice was recorded every day to determine the effects of Compound 2 and control compound PLX3397 on the weight of mice in different model mice. The results are shown in FIGS. 3 and 6. • (5) The growth trends of subcutaneous tumors in mice of different models were statistically analyzed. The tumor volume was calculated using the following method: length×width×width/2 mm^3. The results are shown in FIGS. 4 and 7. • (6) Isolation of tumor-infiltrating lymphocytes: Tumor tissue was first minced (tissue block less than 1 mm^3) with a surgical blade, resuspended in 6 ml of digestion solution (collagenase IV and 0.005% DNaseI enzyme, both purchased from Sigma, USA), and the mixture was transferred to a 15-ml centrifuge tube. The centrifuge tube was then placed in a shaker at 37° C. and digested with shaking at 220 r/min for 2 hours. The cells were sieved through a 200-mesh sieve and collected in a 50-ml centrifuge tube, and centrifuged at 1500 rpm for 10 minutes. The supernatant was then discarded, and 10 ml of DMEM medium (10% FBS) (purchased from GIBCO, USA) was added to the tube to terminate the digestion. The tube was placed in a centrifuge, and centrifuged at 1500 rpm for another 10 minutes. The supernatant was discarded. At the same time, Percoll separation solution (purchased from Millipore, USA) was prepared, and 90% Percoll separation working solution was prepared using 10×PBS. To a 15 ml centrifuge tube, 3-4 ml of 70% Percoll separation solution was added. The cells were resuspended in 4 ml of 40% Percoll separation solution, and the cell mixture was added to the 70% Percoll separation solution. The centrifuge tube was placed in a centrifuge and subjected to density gradient centrifugation at 25° C., 1260 g, for 30 minutes (speed up 5, speed down 0). After the centrifugation, the centrifuge tube was placed on a centrifuge tube rack, the middle leukocyte layer was aspirated with a pipette, and added to 10 ml of PBS, they were mixed well and placed in a centrifuge, and centrifuged at 1500 rpm. The cell supernatant was discarded after 10 min and the cells were resuspended in 5 ml of PBS, centrifuged at 1500 rpm for another 10 min, and the washing process was repeated once. The cells obtained were leukocytes in the tumor tissue. […]

Consider `COc1cc2nccc(Oc3ccc(NC(=O)Cc4ccc(Cl)c(C(F)(F)F)c4)cc3)c2cc1OC` [Example 2, N-(4-((6,7-dimethoxyquinolin-4-yl)oxy)phenyl)-2-(4-chloro-3-(trifluoromethyl)phenyl)-acetamide], for which the GI50 in series [1] amounted to 0.003 µM; in series [2] it was 0.03 µM. Also, the “effect on IL-10 secretion compared with positive controls” value in series [3] (1 μM, same dose as PLX3397 and BLZ945, FIG. 1) is “better for Compound 2 at 1 μM than positive controls PLX3397 and BLZ945”. Also, the “level of IL-10 secretion in M2 macrophages” value in series [3] (RAW264.7 induced with IL-4 or IL-13, treated 72 hours, serial dilutions, FIG. 1) is recorded as “decreased in a dose-dependent manner”. Also, the “toxicity (mouse body weight)” value in series [4] (50 mg/kg oral once a day, FIG. 3) is recorded as “no obvious toxicity”. The “inhibition effect of mouse tumors” value in series [4] (50 mg/kg oral once a day, FIG. 4) is on record as “good inhibition effect of mouse tumors”. The “inhibitory effect on mouse tumors compared with PLX3397” value in series [4] (50 mg/kg oral once a day, as days of administration increased) is reported as “superior to the effect of the control compound PLX3397”. For the same compound, in series [4] (50 mg/kg oral, flow cytometry, FIG. 5), the “proportion of M1 macrophages around the tumor versus solvent group” value is listed as “much higher than that in the solvent group”. Moreover, the “proportion of M1 macrophages in the tumor microenvironment versus PLX3397 group” value in series [4] (same dose 50 mg/kg, FIG. 5) is “higher than that of the PLX3397 group”.
